Assay results as given in patent publication US20230131899A1, “INHIBITORS OF MICROBIALLY INDUCED AMYLOID” (Axial Therapeutics, Inc., priority 2020, published 2023).
Read-outs that look alike come from different tables or passages of the source.

Target: T1, human α-synuclein (Homo sapiens, UniProt P37840)
T1 construct: the full-length gene for untagged human α-synuclein was inserted; made in house; host or cells: E. coli BL21(DE3), plasmid derived from pT7 or pET11a
Test: Cell-free Thioflavin T assay of α-synuclein aggregation (αSyn ThT Assay)
Type: biochemical
Conditions: αSyn 50 μM
Outline: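 Inhibition is reported as 100% minus background-corrected ThT signal relative to vehicle wells, taken at 36, 47, 48 or 72 h or the last read. Reactions held 50 μM recombinant α-synuclein, 20-100 μM compound, 20-40 μM ThT and 1% DMSO. Incubation was at 37° C., shaken, with a glass bead.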

[1] = class symbol, compounds 100 μM, read-out: αSyn ThT Assay % inhibition, activity range
[2] = mean percent inhibition relative to DMSO control, compounds 100 μM, read-out: αSyn ThT Assay % inhibition
[3] = mean % inhibition of αSyn aggregation relative to DMSO control, compounds at 100 μM, read-out: αSyn ThT Assay % Inhibition
[4] = compounds at 100 μM, class symbol, read-out: αSyn ThT Assay % Inhibition (activity range)

Row | SMILES | inhibition at 100 µM [1] [%] | inhibition at 100 µM [2] [%] | inhibition at 100 µM [3] [%] | inhibition at 100 µM [4] [%]
1 | O=C(O)C1CN(Cc2cccc(O)c2)c2c(-c3cccc(C(F)(F)F)c3)c(Cc3cccc4ccccc34)c(Cl)c(=O)n21 (centres unmarked) [Compound 196, 6-chloro-1-(3-hydroxybenzyl)-7-(naphthalen-1-ylmethyl)-5-oxo-8-(3-(trifluoromethyl)phenyl)-1,2,3,5-tetrahydroimidazo[1,2-a]pyridine-3-carboxylic acid] | > 60 | 61 |  | 
2 | CCCN1CC(C(=O)O)n2c(c(-c3cccc(C(F)(F)F)c3)c(Cc3cccc4ccccc34)c(NC(=O)C(C)C)c2=O)S1(=O)=O (centres unmarked) [Compound 152, 7-isobutyramido-8-(naphthalen-1-ylmethyl)-6-oxo-2-propyl-9-(3-(trifluoromethyl)phenyl)-3,4-dihydro-2H,6H-pyrido[1,2-e][1,2,5]thiadiazine-4-carboxylic acid 1,1-dioxide] | 31 to 60 | 54 |  | 
3 | CC(C)N1CC(C(=O)O)n2c(c(-c3cccc(C(F)(F)F)c3)c(Cc3cccc4ccccc34)c(C(N)=O)c2=O)S1(=O)=O (centres unmarked) [Compound 175, 7-carbamoyl-2-isopropyl-8-(naphthalen-1-ylmethyl)-6-oxo-9-(3-(trifluoromethyl)phenyl)-3,4-dihydro-2H,6H-pyrido[1,2-e][1,2,5]thiadiazine-4-carboxylic acid 1,1-dioxide] | > 60 | 98 |  | 
4 | CNC(=O)CCCN1CC(C(=O)O)n2c(c(-c3cccc(C(F)(F)F)c3)c(Cc3cccc4ccccc34)cc2=O)S1(=O)=O (centres unmarked) [Compound 037, 2-(4-(methylamino)-4-oxobutyl)-8-(naphthalen-1-ylmethyl)-6-oxo-9-(3-(trifluoromethyl)phenyl)-3,4-dihydro-2H,6H-pyrido[1,2-e][1,2,5]thiadiazine-4-carboxylic acid 1,1-dioxide] |  |  | 36 | 31 to 60
5 | Nc1c(Cc2cccc3ccccc23)c(-c2cccc(C(F)(F)F)c2)c2n(c1=O)C(C(=O)O)CS2 (single isomer, unassigned) [Compound 020b, 6-amino-7-(naphthalen-1-ylmethyl)-5-oxo-8-(3-(trifluoromethyl)phenyl)-2,3-dihydro-5H-thiazolo[3,2-a]pyridine-3-carboxylic acid] |  |  | 25 | 11 to 30
6 | Cn1c(=O)c2c(nc(CCCCCCCN3CC(C(=O)O)n4c(c(-c5cccc(C(F)(F)F)c5)c(Cc5cccc6ccccc56)cc4=O)S3(=O)=O)n2C)n(C)c1=O (centres unmarked) [Compound 047, 8-(naphthalen-1-ylmethyl)-6-oxo-9-(3-(trifluoromethyl)phenyl)-2-(7-(1,3,7-trimethyl-2,6-dioxo-2,3,6,7-tetrahydro-1H-purin-8-yl)heptyl)-3,4-dihydro-2H,6H-pyrido[1,2-e][1,2,5]thiadiazine-4-carboxylic acid 1,1-dioxide] |  |  | 21 | 11 to 30
7 | CCCN1CC(C(=O)O)n2c(c(-c3cccc(C(F)(F)F)c3)c(Cc3cccc4ccccc34)c(Cl)c2=O)S1(=O)=O (centres unmarked) [Compound 142, 7-chloro-8-(naphthalen-1-ylmethyl)-6-oxo-2-propyl-9-(3-(trifluoromethyl)phenyl)-3,4-dihydro-2H,6H-pyrido[1,2-e][1,2,5]thiadiazine-4-carboxylic acid 1,1-dioxide] | 31 to 60 | 40 |  | 
8 | O=C(O)C1CN(C[C@H](O)[C@@H](O)[C@H](O)[C@H](O)CO)S(=O)(=O)c2c(-c3cccc(C(F)(F)F)c3)c(Cc3cccc4ccccc34)cc(=O)n21 (mixture of isomers) [Compound 066, 8-(naphthalen-1-ylmethyl)-6-oxo-2-((2S,3R,4R,5R)-2,3,4,5,6-pentahydroxyhexyl)-9-(3-(trifluoromethyl)phenyl)-3,4-dihydro-2H,6H-pyrido[1,2-e][1,2,5]thiadiazine-4-carboxylic acid 1,1-dioxide] |  |  | 13 | 11 to 30
9 | O=C(O)C1CN(CCCCCCCN2CC(C(=O)O)n3c2c(-c2cccc(C(F)(F)F)c2)c(Cc2cccc4ccccc24)c(Cl)c3=O)c2c(-c3cccc(C(F)(F)F)c3)c(Cc3cccc4ccccc34)c(Cl)c(=O)n21 (centres unmarked) [Compound 188, 1,1′-(heptane-1,7-diyl)bis(6-chloro-7-(naphthalen-1-ylmethyl)-5-oxo-8-(3-(trifluoromethyl)phenyl)-1,2,3,5-tetrahydroimidazo[1,2-a]pyridine-3-carboxylic acid)] | > 60 | 62 |  | 
10 | O=C(O)C1CN(C[C@@H](O)CO)S(=O)(=O)c2c(-c3cccc(C(F)(F)F)c3)c(Cc3cccc4ccccc34)cc(=O)n21 (mixture of isomers) [Compound 065b, 2-((R)-2,3-dihydroxypropyl)-8-(naphthalen-1-ylmethyl)-6-oxo-9-(3-(trifluoromethyl)phenyl)-3,4-dihydro-2H,6H-pyrido[1,2-e][1,2,5]thiadiazine-4-carboxylic acid 1,1-dioxide] |  |  | 9 | -10 to 10
11 | CCCN1CC(C(=O)O)n2c1c(-c1cccc(C(F)(F)F)c1)c(Cc1cccc3ccccc13)c(Cl)c2=O (centres unmarked) [Compound 162, 6-chloro-7-(naphthalen-1-ylmethyl)-5-oxo-1-propyl-8-(3-(trifluoromethyl)phenyl)-1,2,3,5-tetrahydroimidazo[1,2-a]pyridine-3-carboxylic acid] | > 60 | 67 |  | 
12 | CCCN1CC(C(=O)O)n2c(c(-c3cccc(C(F)(F)F)c3)c(C(F)(F)c3cccc4ccccc34)cc2=O)S1(=O)=O (centres unmarked) [Compound 138, 8-(difluoro(naphthalen-1-yl)methyl)-6-oxo-2-propyl-9-(3-(trifluoromethyl)phenyl)-3,4-dihydro-2H,6H-pyrido[1,2-e][1,2,5]thiadiazine-4-carboxylic acid 1,1-dioxide] | > 60 | 74 |  | 
13 | CCCN1CC(C(=O)O)n2c(c(-c3cccc(C(F)(F)F)c3)c(Cc3cccc4ccccc34)c(C(N)=O)c2=O)S1(=O)=O (centres unmarked) [Compound 172, 7-carbamoyl-8-(naphthalen-1-ylmethyl)-6-oxo-2-propyl-9-(3-(trifluoromethyl)phenyl)-3,4-dihydro-2H,6H-pyrido[1,2-e][1,2,5]thiadiazine-4-carboxylic acid 1,1-dioxide] | > 60 | 98 |  | 
14 | O=C(O)C1CN(CCCCCO)c2c(-c3cccc(C(F)(F)F)c3)c(Cc3cccc4ccccc34)c(Cl)c(=O)n21 (centres unmarked) [Compound 199, 6-chloro-1-(5-hydroxypentyl)-7-(naphthalen-1-ylmethyl)-5-oxo-8-(3-(trifluoromethyl)phenyl)-1,2,3,5-tetrahydroimidazo[1,2-a]pyridine-3-carboxylic acid] | 11 to 30 | 29 |  | 
15 | CNC(=O)C1CN(C)S(=O)(=O)c2c(-c3cccc(C(F)(F)F)c3)c(Cc3cccc4ccccc34)cc(=O)n21 (centres unmarked) [Compound 031, N,2-dimethyl-8-(naphthalen-1-ylmethyl)-6-oxo-9-(3-(trifluoromethyl)phenyl)-3,4-dihydro-2H,6H-pyrido[1,2-e][1,2,5]thiadiazine-4-carboxamide 1,1-dioxide] |  |  | 18 | 11 to 30
16 | Cn1c(=O)c2c(ncn2CCCCCN2CC(C(=O)O)n3c(c(-c4cccc(C(F)(F)F)c4)c(Cc4cccc5ccccc45)cc3=O)S2(=O)=O)n(C)c1=O (centres unmarked) [Compound 034, 2-(5-(1,3-dimethyl-2,6-dioxo-1,2,3,6-tetrahydro-7H-purin-7-yl)pentyl)-8-(naphthalen-1-ylmethyl)-6-oxo-9-(3-(trifluoromethyl)phenyl)-3,4-dihydro-2H,6H-pyrido[1,2-e][1,2,5]thiadiazine-4-carboxylic acid 1,1-dioxide] |  |  | 5 | -10 to 10
17 | O=C(O)C1CN(Cc2cccnc2)c2c(-c3cccc(C(F)(F)F)c3)c(Cc3cccc4ccccc34)c(Cl)c(=O)n21 (centres unmarked) [Compound 169, 6-chloro-7-(naphthalen-1-ylmethyl)-5-oxo-1-(pyridin-3-ylmethyl)-8-(3-(trifluoromethyl)phenyl)-1,2,3,5-tetrahydroimidazo[1,2-a]pyridine-3-carboxylic acid] | 31 to 60 | 33 |  | 
18 | O=C(O)c1c(-c2ccccc2)sc2c(-c3cccc(C(F)(F)F)c3)c(Cc3cccc4ccccc34)cc(=O)n12 [Compound 051, 7-(naphthalen-1-ylmethyl)-5-oxo-2-phenyl-8-(3-(trifluoromethyl)phenyl)-5H-thiazolo[3,2-a]pyridine-3-carboxylic acid] |  |  | 47 | 31 to 60
19 | CCCCN1CC(C(=O)O)n2c1c(-c1cccc(C(F)(F)F)c1)c(Cc1cccc3ccccc13)c(Cl)c2=O (centres unmarked) [Compound 163, 1-butyl-6-chloro-7-(naphthalen-1-ylmethyl)-5-oxo-8-(3-(trifluoromethyl)phenyl)-1,2,3,5-tetrahydroimidazo[1,2-a]pyridine-3-carboxylic acid] | 31 to 60 | 47 |  | 
